Assay results taken from the OligoGym collection.
Values joined by “and” are separate entries in the source; they are usually repeats but may differ in a detail not shown here. Equal values may be shown once. After the bases stand the sugars from the 5' end (letter, count) and the backbone: PS all phosphorothioate, else s phosphorothioate and o phosphodiester by linkage. Methylation of C is not given here. e = 2'-O-(2-methoxyethyl) (MOE); k = constrained ethyl (cEt); d = 2'-deoxy (DNA)

These sequences were tested against IRF4. Details: ASO, MM.1R, 0.0625 µM.

TCTGTATAGTTCTCAA (sugars k3 d10 k3, PS) was tested, and the target mRNA inhibition was -2% and 0%.

Going from TGGAGATACTTGTACT (sugars k3 d10 k3, PS) to TGGATTGCTGATGTGT (sugars k3 d10 k3, PS), the target mRNA inhibition rises from -15% to 45%.

Same assay, conditions: ASO, MM.1R, 0.074 µM

First: TCTATAGTGTTCCAGG (sugars e1 k2 d9 k2 e2, PS)
Second: TCTATAGTGTTCCAGG (sugars kkddddddddddkeke, PS)
The target mRNA inhibition of the first is higher: 22% for the first, 15% for the second.

Same assay, conditions: ASO, MM.1R, 0.222 µM

First: TCTATAGTGTTCCAGG (sugars e1 k2 d9 k2 e2, PS)
Second: TCTATAGTGTTCCAGG (sugars kkddddddddddkeke, PS)
The target mRNA inhibition of the first is higher: 33% for the first, 32% for the second.

Same assay, conditions: ASO, MM.1R, 0.25 µM

In the case of TCTGTATAGTTCTCAA (sugars k3 d10 k3, PS), the target mRNA inhibition is reported as 16% and 26%.

First: TGGAGATACTTGTACT (sugars k3 d10 k3, PS)
Second: TGGATTGCTGATGTGT (sugars k3 d10 k3, PS)
The target mRNA inhibition of the first is lower: -7% for the first, 58% for the second.

Same assay, conditions: ASO, MM.1R, 0.666 µM

Compared with “TCTATAGTGTTCCAGG (sugars e1 k2 d9 k2 e2, PS)”, “TCTATAGTGTTCCAGG (sugars kkddddddddddkeke, PS)” is higher in target mRNA inhibition: 52% for the first, 58% for the second.

Same assay, conditions: ASO, MM.1R, 1 µM

Compared with TCATCCGAAAAGACTG (sugars k3 d10 k3, PS), TCATTAGAAAGCCCTC (sugars k3 d10 k3, PS) is lower in target mRNA inhibition: 16% for the first, -19% for the second.

Going from TCCAACCCTAGATAAC (sugars k3 d10 k3, PS) to TCCGAAAAGACTGGAG (sugars k3 d10 k3, PS), the target mRNA inhibition falls from -5% to -7%.

Going from TCCGGGTGTGGCTGAT (sugars k3 d10 k3, PS) to TCGGAGCGACCCAAAT (sugars k3 d10 k3, PS), the target mRNA inhibition falls from 26% to 12%.

Compared with “TCTATAGTGTTCCAGG (sugars e1 k2 d9 k2 e2, PS)”, “TCTATAGTGTTCCAGG (sugars k3 d9 k3 e1, PS)” is lower in target mRNA inhibition: 58% for the first, 52% for the second.

Going from “TCTATAGTGTTCCAGG (sugars kddddddddddkekek, PS)” to “TCTATAGTGTTCCAGG (sugars kkddddddddddkeke, PS)”, the target mRNA inhibition rises from 16% to 66%.

Going from TCTCCAAAGCATAGAG (sugars k3 d10 k3, PS) to TCTGGATTGCTGATGT (sugars k3 d10 k3, PS), the target mRNA inhibition rises from -8% to 36%.

First: TGAACGGAAGTTTACA (sugars k3 d10 k3, PS)
Second: TGAGATATTCCTCTCA (sugars k3 d10 k3, PS)
The target mRNA inhibition of the first is lower: 14% for the first, 18% for the second.

Going from “TGATAGCTGAGCTGAT (sugars kkddddddddddkeke, PS)” to “TGATGTGATAGCTGAG (sugars k2 d9 e3 k2, PS)”, the target mRNA inhibition rises from -17% to 47%.

First: TGATGTGATAGCTGAG (sugars kddddddddddkekek, PS)
Second: TGATGTGATAGCTGAG (sugars kkddddddddddkeke, PS)
The target mRNA inhibition of the first is lower: 18% for the first, 54% for the second.

First: TGATGTGATAGCTGAG (sugars kkdddddddddekeke, PS)
Second: TGATGTGATAGCTGAG (sugars kkdddddddddkdkdk, PS)
The target mRNA inhibition of the first is higher: 60% for the first, 14% for the second.

Going from “TGCTTGAGGTTTTCCT (sugars kddddddddddkekek, PS)” to “TGCTTGAGGTTTTCCT (sugars kkddddddddddkeke, PS)”, the target mRNA inhibition falls from 36% to 33%.

First: TGCTTGAGGTTTTCCT (sugars kkdddddddddkekek, PS)
Second: TGGATCCTGAGAGTAA (sugars k3 d10 k3, PS)
The target mRNA inhibition of the first is higher: 36% for the first, 0% for the second.

First: TGGATTGATGTGATAG (sugars k3 d10 k3, PS)
Second: TGGCATGCGAATGTGC (sugars k3 d10 k3, PS)
The target mRNA inhibition of the first is higher: 48% for the first, -21% for the second.

Compared with “TGGTTGGCTGGTCTTT (sugars kdddddddddkekeke, PS)”, “TGGTTGGCTGGTCTTT (sugars kkdddddddddekeke, PS)” is higher in target mRNA inhibition: 31% for the first, 60% for the second.

Going from “TGGTTGGCTGGTCTTT (sugars kkdddddddddkekek, PS)” to “TGTAGTATGAGAAACG (sugars kkddddddddddkeke, PS)”, the target mRNA inhibition falls from 44% to 10%.

First: TGTGATAGCTGAGCTG (sugars kkdddddddddekeke, PS)
Second: TGTGATAGCTGAGCTG (sugars kkdddddddddkdkdk, PS)
The target mRNA inhibition of the first is lower: 41% for the first, 47% for the second.

With “TTATATACTGGTTGGT (sugars kddddddddddkekek, PS)” the target mRNA inhibition was 22%.

For TCTGTATAGTTCTCAA (sugars k3 d10 k3, PS), the target mRNA inhibition was 42% and 40%.
For TGGAGATACTTGTACT (sugars k3 d10 k3, PS), the target mRNA inhibition was 42% and 21%.
TGGATTGCTGATGTGT (sugars k3 d10 k3, PS) was tested, and the target mRNA inhibition was 71% and 75%.
For “TGTGCTTGCCAAGCCT (sugars kddddddddddkekek, PS)”, the target mRNA inhibition was -1% and 3%.
“TGTGCTTGCCAAGCCT (sugars kkdddddddddkdkdk, PS)” was tested, and the target mRNA inhibition was 23% and 21%.
“TGTGTATTACTCTTAG (sugars kkdddddddddekeke, PS)” was tested, and the target mRNA inhibition was 54% and 66%.
For “TGTTACCGATGCTTCA (sugars kkdddddddddekeke, PS)”, the target mRNA inhibition was 35% and 49%.
In the case of TTACCGCATTGCTAGA (sugars k3 d10 k3, PS), the target mRNA inhibition is reported as 13% and 26%.

Same assay, conditions: ASO, MM.1R, 2 µM

First: TCTATAGTGTTCCAGG (sugars e1 k2 d9 k2 e2, PS)
Second: TCTATAGTGTTCCAGG (sugars kkddddddddddkeke, PS)
The target mRNA inhibition of the first is lower: 74% for the first, 83% for the second.

Same assay, conditions: ASO, MM.1R, 4 µM

TCTGTATAGTTCTCAA (sugars k3 d10 k3, PS) was tested, and the target mRNA inhibition was 69% and 71%.

Compared with TGGAGATACTTGTACT (sugars k3 d10 k3, PS), TGGATTGCTGATGTGT (sugars k3 d10 k3, PS) is higher in target mRNA inhibition: 58% for the first, 90% for the second.

Same assay, conditions: ASO, SK-MEL-28, 4 µM

First: TCCAACAGGCGGACAC (sugars k3 d10 k3, PS)
Second: TCCACTTCTGAATTCC (sugars k3 d10 k3, PS)
The target mRNA inhibition of the first is higher: 29% for the first, 19% for the second.
